Data reported in PMC3632601, “Polyacetylenes from Notopterygium incisum–New Selective Partial Agonists of Peroxisome Proliferator-Activated Receptor-Gamma” (PLoS ONE, 2013).
Where “and” joins values, the source holds several entries; their conditions need not be identical. Equal values may be shown once. Entries after “also recorded” stand apart in the source; their conditions may differ.

Legend:
human PPARα = target: T1, human PPARα (Homo sapiens, UniProt Q07869); assay: PPARα luciferase reporter gene transactivation in transfected HEK-293 cells; assay type: cell-based; details: HEK-293, tk-PPREx3-luc reporter, 18 h, 0.1–30 µM; n.d. = not detected up to 30 µM; read-out: PPARα activation EC50
T1 construct: expressed in transfected cells; host or cells: HEK-293
T1 sequence (Q07869 1-468): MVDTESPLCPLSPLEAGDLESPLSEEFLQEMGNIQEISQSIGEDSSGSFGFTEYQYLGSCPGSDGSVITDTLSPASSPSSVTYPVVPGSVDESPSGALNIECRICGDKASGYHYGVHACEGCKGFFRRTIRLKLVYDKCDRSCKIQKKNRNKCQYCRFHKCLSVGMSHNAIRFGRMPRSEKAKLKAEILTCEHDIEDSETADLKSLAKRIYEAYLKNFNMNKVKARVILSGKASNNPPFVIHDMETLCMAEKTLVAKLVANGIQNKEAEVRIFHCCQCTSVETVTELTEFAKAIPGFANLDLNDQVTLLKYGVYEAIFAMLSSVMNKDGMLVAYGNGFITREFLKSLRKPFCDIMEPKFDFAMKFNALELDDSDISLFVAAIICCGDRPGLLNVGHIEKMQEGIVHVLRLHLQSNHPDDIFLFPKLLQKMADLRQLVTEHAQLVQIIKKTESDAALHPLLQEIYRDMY
Protocol: (§1) HEK-293 cells (ATCC, USA) were cultured in DMEM with phenol red, supplemented with 100 U/ml benzylpenicillin, 100 µg/ml streptomycin, 2 mM L-glutamine, and 10% FBS. Cells were maintained in 75 cm^2 flasks containing 10 ml medium at 37°C and 5% CO2. The cells were seeded in 10 cm dishes at a density of 6 × 10^6 cells/dish, incubated for 18 h, and transfected by the calcium phosphate precipitation method with 4 µg of the reporter plasmid (tk-PPREx3-luc), 4 µg from the respective PPAR subtype expression plasmid, and 2 µg green fluorescent protein plasmid (pEGFP-N1, Clontech, Mountain View, CA) as internal control. After 6 h, the transfected cells were harvested and re-seeded (5 × 10^4 cells/well) in 96-well plates containing DMEM without phenol red, supplemented with 100 U/ml benzylpenicillin, 100 µg/ml streptomycin, 2 mM L-glutamine, and 5% charcoal-stripped FBS. The cells were further treated with the indicated extracts or compounds or the solvent vehicle and incubated for 18 h. The medium was then discarded and the cells were lysed with a reporter lysis buffer (E3971, Promega, Madison, USA). Luciferase activity of the cell lysates was evaluated using a GeniosPro plate reader (Tecan, Grödig, Austria). The luminescence signals obtained from the luciferase activity measurements were normalized to the EGFP-derived fluorescence, to account for differences in the transfection efficiency or cell number.

human PPARβ/δ = target: T2, human PPARβ/δ (Homo sapiens, UniProt Q03181); assay: PPARβ/δ luciferase reporter gene transactivation in transfected HEK-293 cells; assay type: cell-based; details: HEK-293, tk-PPREx3-luc reporter, 18 h, 0.1–30 µM; n.d. = not detected up to 30 µM; read-out: PPARβ/δ activation EC50
T2 construct: expressed in transfected cells; host or cells: HEK-293
T2 sequence (Q03181 1-441): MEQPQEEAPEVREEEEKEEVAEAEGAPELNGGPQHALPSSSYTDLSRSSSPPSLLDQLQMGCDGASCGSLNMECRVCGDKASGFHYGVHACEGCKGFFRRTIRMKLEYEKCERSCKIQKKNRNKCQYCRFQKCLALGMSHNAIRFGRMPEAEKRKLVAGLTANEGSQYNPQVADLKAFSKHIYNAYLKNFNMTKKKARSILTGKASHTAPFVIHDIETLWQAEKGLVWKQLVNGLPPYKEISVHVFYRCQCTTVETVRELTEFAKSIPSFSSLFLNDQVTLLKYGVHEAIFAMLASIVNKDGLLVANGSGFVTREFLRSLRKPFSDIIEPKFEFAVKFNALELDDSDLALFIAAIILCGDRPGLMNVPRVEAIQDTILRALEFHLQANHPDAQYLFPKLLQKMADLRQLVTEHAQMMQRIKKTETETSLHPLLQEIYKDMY
Protocol: as §1

[1] = target: T3, human PPARγ ligand-binding domain (LBD) (Homo sapiens, UniProt P37231); assay: LanthaScreen TR-FRET PPARγ competitive binding assay; details: purified human PPARγ-LBD, 6 h incubation, Cheng-Prusoff from IC50
T3 construct: purchased Invitrogen
T3 sequence (P37231 238-503 limits assumed): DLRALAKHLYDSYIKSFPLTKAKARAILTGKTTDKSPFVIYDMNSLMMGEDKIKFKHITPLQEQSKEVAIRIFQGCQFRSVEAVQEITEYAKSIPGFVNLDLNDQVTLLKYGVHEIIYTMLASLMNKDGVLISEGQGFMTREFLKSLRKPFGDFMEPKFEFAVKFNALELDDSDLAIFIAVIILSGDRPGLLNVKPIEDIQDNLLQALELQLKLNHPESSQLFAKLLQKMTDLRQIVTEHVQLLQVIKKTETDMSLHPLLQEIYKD
Protocol: The LanthaScreen® time-resolved fluorescence resonance energy transfer (TR-FRET) PPARγ competitive binding assay (Invitrogen, Lofer, Austria) was performed according to the manufacturer’s protocol. The test compounds dissolved in DMSO or the blank solvent vehicle (DMSO) were incubated together with the human PPARγ ligand-binding domain (LBD) tagged with GST, a terbium-labeled anti-GST antibody, and a fluorescently labeled PPAR ligand (Fluormone Pan-PPAR Green, Invitrogen). In this assay, the fluorescently labeled ligand is binding to the human PPARγ LBD, which brings it in close spatial proximity to the terbium-labeled anti-GST antibody. Excitation of the terbium at 340 nm results in energy transfer (FRET) and partial excitation of the fluorescently labeled PPAR ligand, followed by emission at 520 nm. Test-compounds binding to the human PPARγ LBD are competing with the fluorescently labeled ligand and displacing it, resulting in a decrease of the FRET signal. […] All measurements were performed with a GeniosPro plate reader (Tecan, Grödig, Austria).
One-way analysis of variance (ANOVA) with Bonferroni post hoc test, or two-tailed paired t-test was used to determine statistical significance. […]

3T3-L1 preadipocytes = assay: Adipogenicity: 3T3-L1 preadipocyte differentiation, Oil Red O staining; assay type: cell-based; details: 10 µM, with 1 µg/ml insulin, compared with pioglitazone 10 µM; listed as falcarindiol
Protocol: 3T3-L1 preadipocytes (ATCC, USA) were propagated in DMEM supplemented with 10% calf serum. […]. The medium was renewed every two days until day 8. For an estimate of lipid accumulation, Oil Red O staining was performed. For this, cells were fixed in 10% formaldehyde for 1 h and stained with Oil Red O for 10 min. After washing off excessive dye, bound dye was solubilized with 100% isopropanol and photometrically quantified at 550 nm. For better appreciation of the adipogenic potential of the investigated PPARγ agonists, a subset of preadipocytes was treated according to a common standard differentiation protocol (2 days in DMEM/10% FBS/500 µM IBMX/500 nM dexamethasone and 1 µg/mL insulin (MDI), followed by 2 days in DMEM/10% FBS/1 µg/ml insulin and 6 days in DMEM/10% FBS).
Figure 4 Assessment of adipogenicity and glucose uptake-enhancing properties of falcarindiol. […]; containing 10% FBS, 500 µM IBMX, 500 nM dexamethasone, and 1 µg/ml insulin) as a positive control. For an estimate of accumulated lipids, and thus for the adipogenic potential of the test compounds, Oil Red O staining and photometric quantification at 550 nm was performed. […] (B) 3T3-L1 mature adipocytes were incubated with falcarindiol (10 µM) or solvent vehicle (0.1% DMSO) for 48 h and 2-deoxy-D-(1H^3)-glucose cellular uptake was determined for 10 min in the presence or absence (basal uptake) of insulin (500 pM). […]

3T3-L1 adipocytes = assay: 2-Deoxy-D-(1H^3)-glucose uptake in differentiated 3T3-L1 adipocytes; assay type: cell-based; details: 10 µM for 48 h, insulin 500 pM, vs vehicle, listed as falcarindiol
Protocol: Confluent 3T3-L1 preadipocytes (ATCC, USA) were differentiated (day 0) into mature adipocytes for 10 days (2 days in DMEM supplemented with 10% FBS, […], 1 µg/ml insulin and 500 nM dexamethasone followed by 2 days in DMEM/10% FBS/1 µg/ml insulin and 6 days in DMEM/10% FBS), and incubated with the test compounds (10 µM) or 0.1% DMSO as vehicle control for 48 h at 37°C. Before the experiment, cells were incubated for 4 h in DMEM/0.1% BSA followed by 1 h in KRH/BSA buffer (50 mM HEPES, 136 mM NaCl, 23.5 mM KCl, 1.25 mM MgSO4, 1.25 mM CaCl2 and 0.1% BSA). […] The glucose uptake rate was determined by liquid scintillation counting (Perkin Elmer, Waltham, MA, USA) of cell lysates (20 mM HEPES, 1% Igepal CA-630), and normalized to protein content assessed by the Bradford protein assay.
Figure 4 Assessment of adipogenicity and glucose uptake-enhancing properties of falcarindiol. […] For an estimate of accumulated lipids, and thus for the adipogenic potential of the test compounds, Oil Red O staining and photometric quantification at 550 nm was performed. […] (B) 3T3-L1 mature adipocytes were incubated with falcarindiol (10 µM) or solvent vehicle (0.1% DMSO) for 48 h and 2-deoxy-D-(1H^3)-glucose cellular uptake was determined for 10 min in the presence or absence (basal uptake) of insulin (500 pM). […]

human PPARγ = target: T4, human PPARγ (Homo sapiens, UniProt P37231); assay: PPARγ luciferase reporter gene transactivation in transfected HEK-293 cells; details: for PPARγ activation maximal fold activation: HEK-293, 18 h, fold induction above vehicle control (DMSO 0.1%)
T4 sequence (P37231 1-477 isoform P37231-2): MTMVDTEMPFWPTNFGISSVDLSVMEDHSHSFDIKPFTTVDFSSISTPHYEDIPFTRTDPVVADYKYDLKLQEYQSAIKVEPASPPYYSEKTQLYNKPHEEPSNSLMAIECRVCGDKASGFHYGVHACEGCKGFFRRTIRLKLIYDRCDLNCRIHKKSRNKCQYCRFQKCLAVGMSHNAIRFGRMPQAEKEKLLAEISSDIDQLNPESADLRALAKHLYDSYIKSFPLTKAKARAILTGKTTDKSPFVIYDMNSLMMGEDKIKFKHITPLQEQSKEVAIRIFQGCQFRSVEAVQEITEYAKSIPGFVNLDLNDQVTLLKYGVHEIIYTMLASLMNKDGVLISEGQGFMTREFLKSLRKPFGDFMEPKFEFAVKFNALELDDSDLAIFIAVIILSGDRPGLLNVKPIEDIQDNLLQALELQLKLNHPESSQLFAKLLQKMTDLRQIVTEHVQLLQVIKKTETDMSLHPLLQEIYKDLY
Protocol: HEK-293 cells (ATCC, USA) were cultured in DMEM with phenol red, supplemented with 100 U/ml benzylpenicillin, 100 µg/ml streptomycin, 2 mM L-glutamine, and 10% FBS. Cells were maintained in 75 cm^2 flasks containing 10 ml medium at 37°C and 5% CO2. The cells were seeded in 10 cm dishes at a density of 6 × 10^6 cells/dish, incubated for 18 h, and transfected by the calcium phosphate precipitation method [31] with 4 µg of the reporter plasmid (tk-PPREx3-luc), 4 µg from the respective PPAR subtype expression plasmid, and 2 µg green fluorescent protein plasmid (pEGFP-N1, Clontech, Mountain View, CA) as internal control. After 6 h, the transfected cells were harvested and re-seeded (5 × 10^4 cells/well) in 96-well plates containing DMEM without phenol red, supplemented with 100 U/ml benzylpenicillin, 100 µg/ml streptomycin, 2 mM L-glutamine, and 5% charcoal-stripped FBS. The cells were further treated with the indicated extracts or compounds or the solvent vehicle and incubated for 18 h. The medium was then discarded and the cells were lysed with a reporter lysis buffer (E3971, Promega, Madison, USA). Luciferase activity of the cell lysates was evaluated using a GeniosPro plate reader (Tecan, Grödig, Austria). The luminescence signals obtained from the luciferase activity measurements were normalized to the EGFP-derived fluorescence, to account for differences in the transfection efficiency or cell number.
(A) HEK-293 cells were transiently co-transfected with a plasmid encoding full-length human PPARγ, a reporter plasmid containing PPRE coupled to a luciferase reporter and an EGFP plasmid as internal control. […] The data shown are means ± SD of three independent experiments each performed in quadruplet. ***p<0.001, *p<0.05 (compared to the solvent vehicle group; ANOVA/Bonferroni).
The data points shown are means ± SEM of three independent experiments each performed in quadruplet. (B) Cells were transfected and treated as indicated above. […] (C) The cells were prepared as indicated above and treated for 18 h with different concentrations of falcarindiol, always in the presence of 1 µM pioglitazone. The data shown are means ± SD of three independent experiments each performed in quadruplet.

| Compound | EC50 (human PPARα) | EC50 (human PPARβ/δ) | Ki [1] | 3T3-L1 adipocyte differentiation (lipid accumulation, Oil Red O) (3T3-L1 preadipocytes) | insulin-mediated glucose uptake (3T3-L1 adipocytes) | EC50 (human PPARγ) | PPARγ activation maximal fold activation (human PPARγ) | share of the stimulating effect of pioglitazone blocked by co-treatment (human PPARγ; co-treatment with 1 µM pioglitazone, 18 h, maximal block) | stimulating effect upon co-treatment with PPARγ antagonist T0070907 (human PPARγ; falcarindiol 10 µM, T0070907 1 µM) |
| --- | --- | --- | --- | --- | --- | --- | --- | --- | --- |
| C=C[C@@H](O)C#CC#C[C@@H](O)/C=C\CCCCCCC [compound 2, 3R,8S,9Z-heptadeca-1,9-diene-4,6-diyne-3,8-diol] | > 30 µM | > 30 µM | 3.07 µM and 3.1 µM | induced 3T3-L1 preadipocyte differentiation; also recorded: induced the differentiation to adipocytes as expected, although to a smaller extent than pioglitazone | significantly enhanced | 3.29 µM | 3.26 fold | 70–80% | blocked |
| C=C[C@@H](O)/C=C/C#C[C@@H](O)/C=C\CCCCCCC [compound 4, 3R,4E,8S,9Z-heptadeca-1,4,9-triene-6-yne-3,8-diol] | > 30 µM | > 30 µM |  |  |  | 4.58 µM | 2.29 fold |  |  |
| CCCCCCC/C=C\CC#CC#C/C=C\CO [compound 6, 2Z,9Z-heptadecadiene-4,6-diyne-1-ol] | > 30 µM | > 30 µM |  |  |  | 4.18 µM | 1.73 fold |  |  |
| CCCCCCC/C=C\CC#CC#CCCCO [compound 5, 9Z-heptadecene-4,6-diyne-1-ol] | > 30 µM | > 30 µM |  |  |  | 11.3 µM | 1.92 fold |  |  |
| C=C[C@@H](O)C#CC#C[C@H](/C=C\CCCCCCC)OC(C)=O [compound 1, 3R,8S,9Z-3-hydroxyheptadeca-1,9-diene-4,6-diyne-8-yl acetate] | > 30 µM | > 30 µM |  |  |  | 3.59 µM | 2.36 fold |  |  |
| C=C[C@@H](O)C#CC#C[C@@H](O)C1OC1CCCCCCC (stereo partly drawn) [compound 3, 1R,6R-1-(3-heptyloxiran-2-yl)octa-7-ene-2,4-diyne-1,6-diol] | > 30 µM | > 30 µM |  |  |  | 2.03 µM | 1.88 fold |  |  |
